We go through eight compounds from patent US10004701B2, “Methods and compositions for treating infection” (UNIVERSITY OF ROCHESTER, priority 2012, dated 2018).

Structures can show the parent of a compound that is named as a salt. Where two headings read alike, the source gives them in different places.

Test in all cases: AK assay 384-well format, Prestwick library screening
One assay deals with E. faecium. The class given is cell-based, Enterococcus faecium. Conditions: 50 μM final drug concentration; for fold induction at 50 µM: Enterococcus faecium, 3 h.
The test system of assay [1] is S. aureus strain USA300-0114. The assay is classed as cell-based, Staphylococcus aureus. Conditions: 50 μM final drug concentration; for fold induction at 50 µM: Staphylococcus aureus, USA300, 3 h.
For another assay, the system named is K. pneumoniae. The class given is cell-based, Klebsiella pneumoniae. To be noted: 50 μM final drug concentration; for fold induction at 50 µM: Klebsiella pneumoniae, 3 h.
In assay [2] the test system is A. baumannii strain 98-37-09. The class given is cell-based, Acinetobacter baumannii. Conditions: 50 μM final drug concentration; for fold induction at 50 µM: Acinetobacter baumannii, 983709, 3 h.
The test system of the next assay is P. aeruginosa. The class given is cell-based, Pseudomonas aeruginosa. To be noted: 50 μM final drug concentration; for fold induction at 50 µM: Pseudomonas aeruginosa, 3 h.
The test system of the next assay is E. cloacae. The assay is classed as cell-based, Enterobacter cloacae. Conditions: 50 μM final drug concentration; for fold induction at 50 µM: Enterobacter cloacae, 3 h.
Another assay relates to E. coli. The class given is cell-based, Escherichia coli. Conditions: 50 μM final drug concentration; for fold induction at 50 µM: Escherichia coli, 3 h.
Where [3] appears, read: 384-well format, cutoff for positive-scoring molecules 3-fold increase, read-out: AK-based Prestwick Library Screening Results, E. faecium (increase in extracellular AK activity).
[4] abbreviates: 384-well format, cutoff for positive-scoring molecules 3-fold increase, read-out: AK-based Prestwick Library Screening Results, S. aureus (increase in extracellular AK activity).
[5] abbreviates: 384-well format, cutoff for positive-scoring molecules 3-fold increase, read-out: AK-based Prestwick Library Screening Results, K. pneumoniae (increase in extracellular AK activity).
The mark [6] stands for this setting: 384-well format, cutoff for positive-scoring molecules 3-fold increase, read-out: AK-based Prestwick Library Screening Results, A. baumannii (increase in extracellular AK activity).
Where [7] appears, read: 384-well format, cutoff for positive-scoring molecules 3-fold increase, read-out: AK-based Prestwick Library Screening Results, P. aeruginosa (increase in extracellular AK activity).
Setting [8] is: 384-well format, cutoff for positive-scoring molecules 3-fold increase, read-out: AK-based Prestwick Library Screening Results, E. cloacae (increase in extracellular AK activity).
[9] abbreviates: 384-well format, cutoff for positive-scoring molecules 3-fold increase, read-out: AK-based Prestwick Library Screening Results, E. coli (increase in extracellular AK activity).
[10] abbreviates: planktonic, cutoff for positive-scoring molecules 3-fold increase, read-out: AK-based Prestwick Library Screening Results, E. faecium (fold increase in extracellular AK activity).
The mark [11] stands for this setting: planktonic, cutoff for positive-scoring molecules 3-fold increase, read-out: AK-based Prestwick Library Screening Results, S. aureus (fold increase in extracellular AK activity).
Where [12] appears, read: planktonic, cutoff for positive-scoring molecules 3-fold increase, read-out: AK-based Prestwick Library Screening Results, K. pneumoniae (fold increase in extracellular AK activity).
The mark [13] stands for this setting: planktonic, cutoff for positive-scoring molecules 3-fold increase, read-out: AK-based Prestwick Library Screening Results, A. baumannii (fold increase in extracellular AK activity).
Where [14] appears, read: planktonic, cutoff for positive-scoring molecules 3-fold increase, read-out: AK-based Prestwick Library Screening Results, P. aeruginosa (fold increase in extracellular AK activity).
The mark [15] stands for this setting: planktonic, cutoff for positive-scoring molecules 3-fold increase, read-out: AK-based Prestwick Library Screening Results, E. cloacae (fold increase in extracellular AK activity).
Where [16] appears, read: planktonic, cutoff for positive-scoring molecules 3-fold increase, read-out: AK-based Prestwick Library Screening Results, E. coli (fold increase in extracellular AK activity).

Consider `CC(C)c1c(CN(C)C(C)Cc2ccccc2)n(C)n(-c2ccccc2)c1=O` (centres unmarked) [Famprofazone], for which the fold induction at 50 µM worked out at 1 with E. faecium ([…], read-out: AK-based Prestwick Library Screening Results, E. faecium (fold increase in extracellular AK activity)); 0.8 in assay [1] ([…], read-out: AK-based Prestwick Library Screening Results, S. aureus (fold increase in extracellular AK activity)); 1.1 in the assay with K. pneumoniae ([…], read-out: AK-based Prestwick Library Screening Results, K. pneumoniae (fold increase in extracellular AK activity)); 1.1 in assay [2] ([…], read-out: AK-based Prestwick Library Screening Results, A. baumannii (fold increase in extracellular AK activity)); 1.2 in the assay with P. aeruginosa ([…], read-out: AK-based Prestwick Library Screening Results, P. aeruginosa (fold increase in extracellular AK activity)); 1.5 in the assay with E. cloacae ([…], read-out: AK-based Prestwick Library Screening Results, E. cloacae (fold increase in extracellular AK activity)). Also, the fold induction at 50 µM in the assay with E. coli ([…], read-out: AK-based Prestwick Library Screening Results, E. coli (fold increase in extracellular AK activity)) turned out to be 1.2.

For `OCCN1CCN(CCCN2c3ccccc3Sc3ccc(Cl)cc32)CC1` [Perphenazine], the fold induction at 50 µM with E. faecium (setting [3]) was 1.2; in assay [1] (setting [4]), 0.9; with K. pneumoniae (setting [5]), 1.3; in assay [2] (setting [6]), 1.6; in the assay with P. aeruginosa (setting [7]) it was 1.1; with E. cloacae (setting [8]), 1.4. Also, in the assay on E. coli (setting [9]), the fold induction at 50 µM turned out to be 1.5.

Turning to `CCCCNc1cc(C(=O)O)cc(S(N)(=O)=O)c1Oc1ccccc1` [Bumetanide], the fold induction at 50 µM was 0.9 with E. faecium (setting [3]); 0.7 in assay [1] (setting [4]); 0.7 with K. pneumoniae (setting [5]); 0.8 in assay [2] (setting [6]); 0.8 with P. aeruginosa (setting [7]); 1.3 in the assay on E. cloacae (setting [8]). Moreover, in the assay on E. coli (setting [9]), the fold induction at 50 µM came to 0.9.

Regarding `NC[C@H]1O[C@H](O[C@H]2[C@H](O[C@@H]3O[C@H](CO)[C@@H](O)[C@H]3O)[C@@H](O)[C@H](N)C[C@@H]2N)[C@H](N)[C@@H](O)[C@@H]1O` [Ribostamycin sulfate salt], the fold induction at 50 µM with E. faecium (setting [10]) amounted to 0.9; in assay [1] (setting [11]), 0.8; with K. pneumoniae (setting [12]) it was 0.7; in assay [2] (setting [13]) it was 0.8; in the assay on P. aeruginosa (setting [14]), 0.8; with E. cloacae (setting [15]), 1.2. The fold induction at 50 µM in the assay on E. coli (setting [16]) turned out to be 0.9.

Turning to `CC[N+]1(C)[C@@H]2CC[C@H]1CC(OC(=O)[C@@H]1CC[C@@](C(=O)OC3C[C@H]4CC[C@@H](C3)[N+]4(C)CC)(c3ccccc3)c3ccccc31)C2.[Cl-].[Cl-]` (stereo partly drawn) [beta-Belladonnine dichloroethylate], the “AK-based Prestwick Library Screening Results, E. faecium (fold increase in extracellular AK activity)” value in the assay on E. faecium (planktonic, […]) worked out at 1.0. Besides, the “AK-based Prestwick Library Screening Results, S. aureus (fold increase in extracellular AK activity)” value in assay [1] (planktonic, […]) was 1.3. In addition, the “AK-based Prestwick Library Screening Results, K. pneumoniae (fold increase in extracellular AK activity)” value in the assay on K. pneumoniae (planktonic, […]) is 0.9. In addition, in assay [2] (planktonic, […]), the “AK-based Prestwick Library Screening Results, A. baumannii (fold increase in extracellular AK activity)” value is 1.0. Moreover, in the assay with P. aeruginosa (planktonic, […]), the “AK-based Prestwick Library Screening Results, P. aeruginosa (fold increase in extracellular AK activity)” value turned out to be 1.2. In addition, the “AK-based Prestwick Library Screening Results, E. cloacae (fold increase in extracellular AK activity)” value in the assay on E. cloacae (planktonic, […]) was 1.3. Also, the “AK-based Prestwick Library Screening Results, E. coli (fold increase in extracellular AK activity)” value with E. coli (planktonic, […]) was 1.2.

For `Cc1cccc(N(C)C(=S)Oc2ccc3ccccc3c2)c1` [Tolnaftate], the fold induction at 50 µM in the assay on E. faecium (planktonic E. faecium, 384-well, cutoff for positive-scoring molecules 3-fold increase, read-out: AK-based Prestwick Library Screening Results: E. faecium (increase in extracellular AK activity)) is 1; in assay [1] (planktonic S. aureus, 384-well, cutoff for positive-scoring molecules 3-fold increase, read-out: AK-based Prestwick Library Screening Results: S. aureus (increase in extracellular AK activity)), 1.3; with K. pneumoniae (planktonic K. pneumoniae, 384-well, cutoff for positive-scoring molecules 3-fold increase, read-out: AK-based Prestwick Library Screening Results: K. pneumoniae (increase in extracellular AK activity)), 0.9; in assay [2] (planktonic A. baumannii, 384-well, cutoff for positive-scoring molecules 3-fold increase, read-out: AK-based Prestwick Library Screening Results: A. baumannii (increase in extracellular AK activity)), 1.5; with P. aeruginosa (planktonic P. aeruginosa, 384-well, cutoff for positive-scoring molecules 3-fold increase, read-out: AK-based Prestwick Library Screening Results: P. aeruginosa (increase in extracellular AK activity)) it was 1; with E. cloacae (planktonic E. cloacae, 384-well, cutoff for positive-scoring molecules 3-fold increase, read-out: AK-based Prestwick Library Screening Results: E. cloacae (increase in extracellular AK activity)) it was 1.2. The fold induction at 50 µM in the assay on E. coli (planktonic E. coli, 384-well, cutoff for positive-scoring molecules 3-fold increase, read-out: AK-based Prestwick Library Screening Results: E. coli (increase in extracellular AK activity)) stood at 1.1.

For `O=C(O)Cc1ccc(-c2ccccc2)cc1` [Felbinac], the fold induction at 50 µM in the assay with E. faecium (setting [10]) was determined as 0.9; in assay [1] (setting [11]), 0.6; in the assay with K. pneumoniae (setting [12]), 0.6; in assay [2] (setting [13]), 0.8; in the assay on P. aeruginosa (setting [14]), 0.7; with E. cloacae (setting [15]) it was 1. Besides, in the assay on E. coli (setting [16]), the fold induction at 50 µM stood at 0.7.

Consider `O=c1cc(-c2ccc(O)c(O)c2)oc2cc(O)cc(O)c12` [Luteolin], for which the fold induction at 50 µM in the assay on E. faecium (cutoff for positive-scoring molecules 3-fold increase, read-out: AK-based Prestwick Library Screening Results, E. faecium (fold increase in extracellular AK activity)) came out at 0.5; in assay [1] (cutoff for positive-scoring molecules 3-fold increase, read-out: AK-based Prestwick Library Screening Results, S. aureus (fold increase in extracellular AK activity)), 0.2; with K. pneumoniae (cutoff for positive-scoring molecules 3-fold increase, read-out: AK-based Prestwick Library Screening Results, K. pneumoniae (fold increase in extracellular AK activity)), 0.5; in assay [2] (cutoff for positive-scoring molecules 3-fold increase, read-out: AK-based Prestwick Library Screening Results, A. baumannii (fold increase in extracellular AK activity)), 0.3; in the assay with P. aeruginosa (cutoff for positive-scoring molecules 3-fold increase, read-out: AK-based Prestwick Library Screening Results, P. aeruginosa (fold increase in extracellular AK activity)), 0.5; in the assay on E. cloacae (cutoff for positive-scoring molecules 3-fold increase, read-out: AK-based Prestwick Library Screening Results, E. cloacae (fold increase in extracellular AK activity)) it was 1.6. Besides, the fold induction at 50 µM in the assay with E. coli (cutoff for positive-scoring molecules 3-fold increase, read-out: AK-based Prestwick Library Screening Results, E. coli (fold increase in extracellular AK activity)) was found to be 0.4.
